pIC50: −log10 of the molar value. The source made the active and inactive calls. The calls are words filed in the database; no cut-off is given here.
Legend:
[1] = Cytotoxicity against human HCT8 cells after 48 hrs by MTT assay; format: functional, cell-based; details: HCT-8, 48 h
[2] = test system: A549; assay: Cytotoxicity against human A549 cells after 48 hrs by MTT assay; format: functional, cell-based; details: A549, 48 h
[3] = test system: HeLa; assay: Cytotoxicity against human HeLa cells after 48 hrs by MTT assay; format: functional, cell-based
[4] = test system: HL-60; assay: Cytotoxicity against human HL60 cells after 48 hrs by cell counting kit-8 assay; format: functional, cell-based; details: HL-60, 48 h
[5] = test system: HeLa; assay: Cell cycle arrest in human HeLa cells assessed as accumulation at S phase at 0.5 uM by propidium iodide staining-based FACS flow cytometric analysis (reference value: 16.3%); format: functional
[6] = test system: HeLa; assay: Cell cycle arrest in human HeLa cells assessed as accumulation at G1 phase at 10 uM by propidium iodide staining-based FACS flow cytometric analysis (reference value: 54.7%); format: functional
[7] = test system: HeLa; assay: Cell cycle arrest in human HeLa cells assessed as accumulation at G1 phase at 5 uM by propidium iodide staining-based FACS flow cytometric analysis (reference value: 54.7%); format: functional
[8] = test system: HeLa; assay: Cell cycle arrest in human HeLa cells assessed as accumulation at G1 phase at 0.5 uM by propidium iodide staining-based FACS flow cytometric analysis (reference value: 54.7%); format: functional
[9] = test system: HeLa; assay: Cell cycle arrest in human HeLa cells assessed as accumulation at sub-G1 phase at 10 uM by propidium iodide staining-based FACS flow cytometric analysis (reference value: 4.4%); format: functional
[10] = test system: HeLa; assay: Cell cycle arrest in human HeLa cells assessed as accumulation at sub-G1 phase at 0.5 uM by propidium iodide staining-based FACS flow cytometric analysis (reference value: 4.4%); format: functional
[11] = test system: HeLa; assay: Cell cycle arrest in human HeLa cells assessed as accumulation at sub-G1 phase at 5 uM by propidium iodide staining-based FACS flow cytometric analysis (reference value: 4.4%); format: functional
[12] = test system: HeLa; assay: Cell cycle arrest in human HeLa cells assessed as accumulation at G2/M phase at 5 uM after 24 hrs by propidium iodide staining-based FACS flow cytometric analysis (reference value: 22.7%); format: functional
[13] = test system: HeLa; assay: Cell cycle arrest in human HeLa cells assessed as accumulation at G2/M phase at 5 uM after 12 hrs by propidium iodide staining-based FACS flow cytometric analysis (reference value: 22.7%); format: functional
[14] = test system: HeLa; assay: Cell cycle arrest in human HeLa cells assessed as accumulation at S phase at 5 uM after 24 hrs by propidium iodide staining-based FACS flow cytometric analysis (reference value: 9.0%); format: functional
[15] = test system: HeLa; assay: Cell cycle arrest in human HeLa cells assessed as accumulation at S phase at 5 uM after 12 hrs by propidium iodide staining-based FACS flow cytometric analysis (reference value: 9.0%); format: functional
[16] = test system: HeLa; assay: Cell cycle arrest in human HeLa cells assessed as accumulation at G1 phase at 5 uM after 24 hrs by propidium iodide staining-based FACS flow cytometric analysis (reference value: 57.2%); format: functional
[17] = test system: HeLa; assay: Cell cycle arrest in human HeLa cells assessed as accumulation at G1 phase at 5 uM after 12 hrs by propidium iodide staining-based FACS flow cytometric analysis (reference value: 57.2%); format: functional
[18] = test system: HeLa; assay: Cell cycle arrest in human HeLa cells assessed as accumulation at sub-G1 phase at 5 uM after 24 hrs by propidium iodide staining-based FACS flow cytometric analysis (reference value: 1.8%); format: functional
[19] = test system: HeLa; assay: Cell cycle arrest in human HeLa cells assessed as accumulation at sub-G1 phase at 5 uM after 12 hrs by propidium iodide staining-based FACS flow cytometric analysis (reference value: 1.8%); format: functional
[20] = test system: HeLa; assay: Induction of apoptosis in human HeLa cells assessed as upregulation of Bax protein expression at 5 uM after 1 to 24 hrs by Western blotting analysis; format: functional, cell-based
[21] = test system: HeLa; assay: Cell cycle arrest in human HeLa cells assessed as accumulation at sub-G1 phase by propidium iodide staining-based FACS flow cytometric analysis; format: functional
[22] = test system: DNA; assay: Binding affinity to calf thymus DNA assessed as increase in complex fluorescence using 1 to 6 uM of DNA at 1 uM after 5 mins by fluorescence assay; format: nucleic-acid assay; details: Bos taurus
[23] = test system: DNA; assay: Binding affinity to calf thymus DNA assessed as change in DNA conformation from B-form to C-form at 5 to 40 ug/ml after 24 hrs by circular dichorism spectroscopy; format: nucleic-acid assay; details: Bos taurus
[24] = test system: HeLa; assay: Induction of apoptosis in human HeLa cells assessed as upregulation of caspase-3 protein expression at 5 uM by Western blotting analysis; format: functional, cell-based; details: TDE = time-dependent effect
[25] = test system: HeLa; assay: Induction of apoptosis in human HeLa cells assessed as upregulation of p53 protein expression at 5 uM by Western blotting analysis; format: functional, cell-based; details: TDE = time-dependent effect
[26] = test system: HeLa; assay: Induction of apoptosis in human HeLa cells assessed as upregulation of Bax protein expression at 5 uM by Western blotting analysis; format: functional, cell-based; details: TDE = time-dependent effect
[27] = test system: HeLa; assay: Induction of apoptosis in human HeLa cells assessed as upregulation of caspase-3 protein expression at 5 uM after 1 to 24 hrs by Western blotting analysis; format: functional, cell-based
[28] = test system: HeLa; assay: Induction of apoptosis in human HeLa cells assessed as upregulation of p53 protein expression at 5 uM after 1 to 24 hrs by Western blotting analysis; format: functional, cell-based
[29] = test system: HeLa; assay: Cell cycle arrest in human HeLa cells assessed as accumulation at G2/M phase at 10 uM by propidium iodide staining-based FACS flow cytometric analysis (reference value: 15.0%); format: functional
[30] = test system: HeLa; assay: Cell cycle arrest in human HeLa cells assessed as accumulation at G2/M phase at 5 uM by propidium iodide staining-based FACS flow cytometric analysis (reference value: 15.0%); format: functional
[31] = test system: HeLa; assay: Cell cycle arrest in human HeLa cells assessed as accumulation at G2/M phase at 0.5 uM by propidium iodide staining-based FACS flow cytometric analysis (reference value: 15.0%); format: functional
[32] = test system: HeLa; assay: Cell cycle arrest in human HeLa cells assessed as accumulation at S phase at 10 uM by propidium iodide staining-based FACS flow cytometric analysis (reference value: 16.3%); format: functional
[33] = test system: HeLa; assay: Cell cycle arrest in human HeLa cells assessed as accumulation at S phase at 5 uM by propidium iodide staining-based FACS flow cytometric analysis (reference value: 16.3%); format: functional

CCCNC(=O)O[C@@H]1c2cc3c(cc2[C@@H](c2cc(OC)c(O)c(OC)c2)[C@H]2C(=O)OC[C@@H]21)OCO3
pIC50 [1]: 6.73 | pIC50 [2]: 5.05 | pIC50 [3]: 4.88 | pIC50 [4]: 7.05

COc1cc([C@@H]2c3cc4c(cc3[C@@H](OC(=O)N3CCN(c5ccc([N+](=O)[O-])cc5)CC3)[C@H]3COC(=O)[C@H]23)OCO4)cc(OC)c1O
Activity [5]: 9.8% | Activity [6]: 26% | Activity [7]: 33.9% | Activity [8]: 35.9% | Activity [9]: 24.7% | Activity [10]: 21.7% | Activity [11]: 23% | Activity [12]: 38.1% | Activity [13]: 29.9% | Activity [14]: 10.2% | Activity [15]: 10.2% | Activity [16]: 33.3% | Activity [17]: 43.8% | Activity [18]: 11.1% | Activity [19]: 4.1% | pIC50 [1]: > 8.00 | pIC50 [2]: 5.78 | pIC50 [3]: 7.13 | pIC50 [4]: 6.77 | Activity [20]: Active | Activity [21]: Dose-dependent effect | Activity [22]: Active | Activity [23]: Active | Activity [24]: tde | Activity [25]: tde | Activity [26]: tde | Activity [27]: Active | Activity [28]: Active | Activity [29]: 29.1% | Activity [30]: 22.5% | Activity [31]: 20.5% | Activity [32]: 13.1% | Activity [33]: 10.2%

COc1cc([C@@H]2c3cc4c(cc3[C@@H](OC(=O)N3CCOCC3)[C@H]3COC(=O)[C@H]23)OCO4)cc(OC)c1OC(=O)N1CCOCC1
pIC50 [1]: 6.89 | pIC50 [2]: < 4.00 | pIC50 [3]: < 4.00 | pIC50 [4]: > 8.00

COc1cc([C@@H]2c3cc4c(cc3[C@@H](OC(=O)N[C@@H](CCSC)C(=O)N3CCN(c5ccc([N+](=O)[O-])cc5)CC3)[C@H]3COC(=O)[C@H]23)OCO4)cc(OC)c1O
pIC50 [1]: 6.24 | pIC50 [2]: < 4.00 | pIC50 [3]: 4.31 | pIC50 [4]: 8.00

COc1cc([C@@H]2c3cc4c(cc3[C@@H](OC(=O)N[C@H](CCSC)C(=O)N3CCN(c5ccc([N+](=O)[O-])cc5)CC3)[C@H]3COC(=O)[C@H]23)OCO4)cc(OC)c1O
pIC50 [1]: 6.07 | pIC50 [2]: < 4.00 | pIC50 [3]: < 4.00 | pIC50 [4]: 7.70

COc1cc([C@@H]2c3cc4c(cc3[C@@H](OC(=O)N3CCN(c5ccc([N+](=O)[O-])cc5)CC3)[C@H]3COC(=O)[C@H]23)OCO4)cc(OC)c1OC(=O)N1CCN(c2ccc([N+](=O)[O-])cc2)CC1
pIC50 [1]: 8.00 | pIC50 [2]: 4.24 | pIC50 [4]: 6.46

COc1cc([C@@H]2c3cc4c(cc3[C@@H](OC(=O)NC3CC3)[C@H]3COC(=O)[C@H]23)OCO4)cc(OC)c1O
pIC50 [1]: 7.10 | pIC50 [2]: 4.74 | pIC50 [3]: 4.97 | pIC50 [4]: 6.80

COc1cc([C@@H]2c3cc4c(cc3[C@@H](O[C@@H]3O[C@@H]5CO[C@@H](C)O[C@H]5[C@H](O)[C@H]3O)[C@H]3COC(=O)[C@H]23)OCO4)cc(OC)c1O [ETOPOSIDE]
pIC50 [3]: 5.54

COc1cc([C@@H]2c3cc4c(cc3[C@@H](OC(=O)N[C@H](Cc3ccccc3)C(=O)N3CCN(c5ccc([N+](=O)[O-])cc5)CC3)[C@H]3COC(=O)[C@H]23)OCO4)cc(OC)c1O
pIC50 [1]: 7.15 | pIC50 [2]: < 4.00 | pIC50 [3]: 4.54 | pIC50 [4]: 7.40

COc1cc([C@@H]2c3cc4c(cc3[C@@H](OC(=O)N3CCN(C)CC3)[C@H]3COC(=O)[C@H]23)OCO4)cc(OC)c1O
pIC50 [1]: 7.52 | pIC50 [2]: 5.38 | pIC50 [3]: 4.70 | pIC50 [4]: 6.72

COc1cc([C@@H]2c3cc4c(cc3[C@@H](OC(=O)N[C@@H](C)C(=O)N3CCN(c5ccc([N+](=O)[O-])cc5)CC3)[C@H]3COC(=O)[C@H]23)OCO4)cc(OC)c1O
pIC50 [1]: 6.15 | pIC50 [2]: 4.72 | pIC50 [3]: < 4.00 | pIC50 [4]: 6.89

COc1cc([C@@H]2c3cc4c(cc3[C@@H](OC(=O)N3CCN(C5CCCC5)CC3)[C@H]3COC(=O)[C@H]23)OCO4)cc(OC)c1O
pIC50 [1]: 5.79 | pIC50 [2]: 5.41 | pIC50 [3]: 5.36 | pIC50 [4]: > 8.00

COc1cc([C@@H]2c3cc4c(cc3[C@@H](OC(=O)N3CCN(c5ccc(F)cc5)CC3)[C@H]3COC(=O)[C@H]23)OCO4)cc(OC)c1O
pIC50 [1]: 8.00 | pIC50 [2]: 5.28 | pIC50 [3]: 5.80 | pIC50 [4]: 6.48

COc1cc([C@@H]2c3cc4c(cc3[C@@H](OC(=O)N[C@@H](Cc3ccccc3)C(=O)N3CCN(c5ccc([N+](=O)[O-])cc5)CC3)[C@H]3COC(=O)[C@H]23)OCO4)cc(OC)c1O
pIC50 [1]: 8.00 | pIC50 [2]: 5.02 | pIC50 [3]: 5.38 | pIC50 [4]: 7.52

COc1cc([C@@H]2c3cc4c(cc3[C@@H](OC(=O)NC3CCCCC3)[C@H]3COC(=O)[C@H]23)OCO4)cc(OC)c1O
pIC50 [1]: 5.91 | pIC50 [2]: 4.58 | pIC50 [3]: 5.27 | pIC50 [4]: 6.57

COc1cc([C@@H]2c3cc4c(cc3[C@@H](OC(=O)NC3CCCC3)[C@H]3COC(=O)[C@H]23)OCO4)cc(OC)c1O
pIC50 [1]: 6.48 | pIC50 [2]: 5.34 | pIC50 [3]: 5.43 | pIC50 [4]: 6.68

COc1cc([C@@H]2c3cc4c(cc3[C@@H](OC(=O)N3CCOCC3)[C@H]3COC(=O)[C@H]23)OCO4)cc(OC)c1O
pIC50 [1]: 6.82 | pIC50 [2]: 5.07 | pIC50 [3]: 5.07 | pIC50 [4]: 8.00

COc1cc([C@@H]2c3cc4c(cc3[C@@H](OC(=O)N[C@H](C(=O)N3CCN(c5ccc([N+](=O)[O-])cc5)CC3)C(C)C)[C@H]3COC(=O)[C@H]23)OCO4)cc(OC)c1O
pIC50 [1]: 8.00 | pIC50 [2]: 5.08 | pIC50 [3]: < 4.00 | pIC50 [4]: 6.59
